Several values for one entry are separate records, joined by “and”; a condition that tells them apart may be missing. Equal values may be shown once.
Key:
[1] = tested on: T. gondii β-gal tachyzoites; test: Primary screening: T. gondii β-gal proliferation in HFF monolayers at 0.1 and 1 µM (CPRG readout); type: cell-based, Toxoplasma gondii; conditions: 0.1 µM, tachyzoites cultured in HFF, 72 h, relative to DMSO control
Experimental: (§1) The screening cascade for the compounds was described in former studies. All compounds were prepared as 1 mM stock solutions from powder, in dimethyl sulfoxide (DMSO, Sigma, St. Louis, MO, USA). For in vitro activity and cytotoxicity assays, HFF were seeded at 5 × 10^3/well and allowed to grow to confluence in phenol-red free culture medium at 37 °C and 5% CO2. T. gondii tachyzoites were released from host cells, and HFF monolayers were infected with freshly isolated parasites (1 × 10^3/well), and compounds were added concomitantly with infection.
In the primary screening, HFF monolayers infected with T. gondii β-gal were treated with 0.1 and 1 µM of each compound, or the corresponding concentration of DMSO (0.01 or 0.1%, respectively) as controls and were incubated for 72 h at 37 °C/5% CO2 as previously described.
(§2) To measure the activity of the tested compound on T. gondii β-gal parasites, after a period of 72 h of culture at 37 °C/5% CO2, the culture medium was aspirated, and cells were permeabilized by adding 90 μL PBS (phosphate buffered saline) with 0.05% Triton X-100. Next, 10 μL of 5 mM chlorophenolred-β-D-galactopyranoside (CPRG; Roche Diagnostics, Rotkreuz, Switzerland, substrate for the β-galactosidase) in PBS were added. Release of chlorophenol red was measured at 570 nm using an EnSpire® multimode plate reader (PerkinElmer, Inc., Waltham, MA, USA). A 100% proliferation of T. gondii β-gal was assigned to control parasites treated only with DMSO. For the primary screening at 0.1 and 1 μM, the activity was measured as the release of chlorophenol red over time and was calculated as percentage from the respective DMSO treated control, which represented 100% of T. gondii β-gal growth.

[2] = tested on: T. gondii β-gal tachyzoites; test: Dose-response study (IC50) against T. gondii β-gal tachyzoites; type: cell-based, Toxoplasma gondii; conditions: 8 serial concentrations 0.007-1 µM, 72 h
Experimental: as §1
For the dose-response study (IC50 values), measurements for T. gondii β-gal were performed. The selected compounds were added concomitantly with infection in 8 serial concentrations 0.007, 0.01, 0.03, 0.06, 0.12, 0.25, 0.5, and 1 μM.
as §2
For the IC50 assays, the activity measured as the release of chlorophenol red over time was proportional to the number of live parasites down to 50 per well as determined in pilot assays. IC50 values were calculated after the logit-log-transformation of relative growth and subsequent regression analysis. All calculations were performed using the corresponding software tool contained in the Excel software package (Microsoft, Redmond, WA, USA).

[3] = tested on: human foreskin fibroblasts (HFF); test: Cytotoxicity in non-infected HFF by alamarBlue assay; type: cell-based
Experimental: as §1
Cytotoxicity assays using uninfected confluent HFF host cells were performed by the alamarBlue assay as previously reported. Confluent HFF monolayers in 96 well-plates were exposed to 0.1, 1, and 2.5 μM of each compound. Non-treated HFF as well as DMSO controls (0.01%, 0.1%, and 0.25%) were included. After 72 h of incubation at 37 °C/5% CO2, the medium was removed, and the plates were washed once with PBS. Resazurin suspended in PBS to a final concentration of 0.01 g/L was added to each well (200 μL/well). Fluorescence was measured at excitation wavelength 530 nm and emission wavelength […] using an EnSpire® multimode plate reader (PerkinElmer, Inc, Waltham, MA, USA). The cytotoxicity values were calculated as percentage of the respective DMSO control, which represented 100% of HFF viability.

[4] = tested on: T. brucei bloodstream forms; set-up: method as in PMID 34639127; conditions: ref [126]; cited from earlier work

With `CC(C)(C)c1ccc(C[S+]2[Ru-]3[S+](Cc4ccc(C(C)(C)C)cc4)[Ru-]2[S+]3c2ccc(CC(=O)OCCn3cnc4c(N)ncnc43)cc2)cc1.Cc1ccc(C(C)C)cc1.Cc1ccc(C(C)C)cc1.[Cl-]` (centres unmarked) [Compound 14] the “T. gondii β-gal Growth (%)” value [1] was 12 ± 1%, the IC50 [2] was 0.059 µM and the “HFF Viability (%)” value ([3]; 0.1 µM, non-infected HFF, 72 h, relative to DMSO control, triplicate) was 95 ± 11%. For the same compound, the “HFF Viability (%)” value ([3]; 2.5 µM, control 0.25% DMSO = 100%, six replicates) was “low toxicity and medium toxicity and 76%” and the “Activity against T. brucei bloodstream forms” value [4] was “highly active”.
